Results on 17 compounds are retold here after US20260256136A1, “STABILIZATION OF ALDEHYDES AND/OR AN ALCOHOLS” (priority 2022, published 2026).

SMILES strings stand for the structures.

Data set [1] in a line: Accelerated storage test of aldehyde mixture with additive, 40 ppm Cu (Example 1). Type of data set: physicochemical. To be noted: after 55° C. 14 days without cap; for Z9-16:Ald: before test 4.3, blank 3.066023; for C16:Acid: before test 6.7, blank 18.84135; for 16:Ald: before test 7.5, blank 6.659339; for Z11-16Ald: before test 69.4, blank 54.83784, in % (unit assumed).
Procedure: To a mixture of aldehydes containing; (Z)-9-hexadecenal, (Z)-11-hexadecenal, hexadecanal, (Z)-11-hexadecen-1-ol, (Z)-11-hexadecenoic acid and 40 ppm Cu was added an additive as indicated in table 1 below. The mixture was thoroughly mixed and heated without cap in an oven at 55° C. for 14 days as an accelerated storage test.
A short description of data set [2]: Accelerated storage test of aldehyde mixture with additive, 10 ppm Cu (Example 2). The following applies: after 55° C. 14 days without cap; for C16:Acid: before test 1.05, blank 17.72; for Z9-16:Ald: before test 5.09, blank 3.05; for 16:Ald: before test 8.41, blank 6.60; for Z11-16Ald: before test 75.31, blank 54.31. Here is the method:
The term “accelerated storage test” as used herein refers to a well known protocol for investigating the stability of a particular composition. The protocol is described in for example the memorandum dated 16 Nov. 2012 from The United States Environmental Protection Agency Washington, D.C. 20460 with the subject title “Accelerated Storage Stability and Corrosion Characteristics Study Protocol”. The protocol evaluates product stability at 54° C.±2° C. for 14 days.

Data set [3] in a line: Storage test of aldehyde mixture containing 4-hydroxy-TEMPO and 10 ppm Copper with additive (Example 3). The following applies: for Z11-16:OH / Z10-15:Ald / 16:Acid / Z9-16:Ald / 16:Ald / Z11-16:Ald: after 55 C 14 days without cap; for Z11-16:OH: before test 2.16, blank 1.44; for Z10-15:Ald: before test 2.61, blank 2.72; for 16:Acid: before test 3.01, blank 7.94; for Z9-16:Ald: before test 5.33, blank 3.91; for 16:Ald: before test 8.16, blank 6.48; for Z11-16:Ald: before test 74.98, blank 58.18.
Procedure: To a mixture of aldehydes containing; 4-hydroxy-TEMPO (4-hydroxy-2,2,6,6-tetramethylpiperidin-1-oxyl), (Z)-10-pentenenal, (Z)-9-hexadecenal, (Z)-11-hexadecenal, hexadecanal, (Z)-11-hexadecen-1-ol (Z)-11-hexadecenoic acid and 10 ppm Copper in the composition listed in table 3 below was added up to 1% of an additive in table below. The mixture was thoroughly mixed and heated without cap in an oven at 55 C for 14 days.

Data set [4] is described as follows: Storage test of aldehyde mixture containing 4-hydroxy-TEMPO with additive (Example 4). Type of data set: physicochemical. To be noted: for Heptane / Z11-16:OH / 16:Acid / OH tempo / Z9-16:Ald / 15-1:Ald / 16:Ald / Z11-16:Ald: after 55° C. 14 days without cap; for Heptane: before test 0.04, without additive 0.04; for Z11-16:OH: before test 0.27, without additive 0.06; for 16:Acid: before test 1.05, without additive 6.14; for OH tempo: before test 1.19, without additive 1.11; for Z9-16:Ald: before test 5.09, without additive 3.71; for 15-1:Ald: before test 7.27, without additive 5.83; for 16:Ald: before test 8.41, without additive 6.64; for Z11-16:Ald: before test 75.31, without additive 57.21, in % (unit assumed).
Procedure: To a mixture of aldehydes containing; 4-hydroxy-TEMPO (4-hydroxy-2,2,6,6-tetramethylpiperidin-1-oxyl), (Z)-10-pentenenal, (Z)-9-hexadecenal, (Z)-11-hexadecenal, hexadecanal, (Z)-11-hexadecen-1-ol and (Z)-11-hexadecenoic acid in the composition listed in table 4 below was added up to 1% of an additive in table below. The mixture was thoroughly mixed and heated without cap in an oven at 55° C. for 14 days.

On to `Cc1c(C)c2c(c(C)c1O)CCC(C)(CCCC(C)CCCC(C)CCCC(C)C)O2` (racemic) [Tocopherol], for which, in data set [1], the “Z9-16:Ald” value is 3.379, the “C16:Acid” value is 17.008, the “16:Ald” value is 6.914 and the Z11-16Ald is on record as 54.67. Besides, in data set [2], the “C16:Acid” value is recorded as 17.70, the “Z9-16:Ald” value is 3.09, the “16:Ald” value amounted to 6.65 and the Z11-16Ald was 54.82.
In the case of `CC1(C)CC(=O)CC(C)(C)N1` [2,2,6,6-tetramethyl-4-piperidone], in data set [3] (10 ppm Copper), the “Z11-16:OH” value was 1.75, the “Z10-15:Ald” value was 3.14, the “16:Acid” value came to 5.70 and the “Z9-16:Ald” value is on record as 3.83. Moreover, in data set [3] (10 ppm Copper), the “16:Ald” value turned out to be 6.41 and the “Z11-16:Ald” value came out at 59.27. In data set [4], the Heptane is 0.04, the “Z11-16:OH” value is on record as 0.15, the “16:Acid” value was determined as 4.02 and the OH tempo is on record as 1.11. Besides, in data set [4], the “Z9-16:Ald” value is given as 4.03, the “15-1:Ald” value is recorded as 6.27, the “16:Ald” value amounted to 6.95 and the “Z11-16:Ald” value was 61.06.
For `Cn1ccnc1S` [2-mercapto-1-methylimidazole], in data set [3] (10 ppm Copper), the “Z11-16:OH” value was found to be 1.92, the “Z10-15:Ald” value turned out to be 2.88, the “16:Acid” value amounted to 2.93 and the “Z9-16:Ald” value is 4.83. Moreover, in data set [3] (10 ppm Copper), the “16:Ald” value was 7.82 and the “Z11-16:Ald” value was determined as 72.34. Besides, in data set [4], the “suppressing acid formation and/or degradation of the aldehydes” value was “particularly efficient at suppressing acid formation and/or degradation of the aldehydes”, the Heptane worked out at 0.04, the “Z11-16:OH” value came out at 0.28 and the “16:Acid” value is 1.12. Further, in data set [4], the OH tempo turned out to be 1.12, the “Z9-16:Ald” value is given as 4.88, the “15-1:Ald” value turned out to be 6.65 and the “16:Ald” value was found to be 8.22. Also, in data set [4], the “Z11-16:Ald” value worked out at 73.41.
For the compound `Sc1nc2ccccc2[nH]1` [2-mercapto-Benzimidazole], the OH tempo in data set [3] came out at 1.11. The “suppressing acid formation and degradation of the aldehydes” value in data set [3] (55 C 14 days, 10 ppm Copper) is “particularly efficient at suppressing acid formation and degradation of the aldehydes”. In data set [3] (10 ppm Copper), the “Z11-16:OH” value is 1.87, the “Z10-15:Ald” value turned out to be 3.10, the “16:Acid” value is 3.80 and the “Z9-16:Ald” value is on record as 4.70. In addition, in data set [3] (10 ppm Copper), the “16:Ald” value is given as 7.53 and the “Z11-16:Ald” value is 69.33. Besides, in data set [4], the Heptane is 0.04, the “Z11-16:OH” value is 0.00, the “16:Acid” value stood at 4.23 and the OH tempo was found to be 1.05. For the same compound, in data set [4], the “Z9-16:Ald” value is recorded as 3.43, the “15-1:Ald” value stood at 6.16, the “16:Ald” value was 6.97 and the “Z11-16:Ald” value came to 59.82.
Regarding `COc1ccc(O)c(C(C)(C)C)c1` [BHA], in data set [1], the “Z9-16:Ald” value was 3.364, the “C16:Acid” value turned out to be 15.55, the “16:Ald” value is recorded as 7.158 and the Z11-16Ald was 59.48. Besides, in data set [2], the “C16:Acid” value came to 12.64, the “Z9-16:Ald” value is reported as 3.46, the “16:Ald” value turned out to be 7.33 and the Z11-16Ald is on record as 61.54.
Take `Cc1cc(C(C)(C)C)c(O)c(C(C)(C)C)c1` [BHT]: in data set [1], the “Z9-16:Ald” value was determined as 3.425, the “C16:Acid” value came out at 16.05, the “16:Ald” value stood at 6.958 and the Z11-16Ald was found to be 54.06. For the same compound, in data set [2], the “C16:Acid” value came out at 10.43, the “Z9-16:Ald” value stood at 3.73, the “16:Ald” value is reported as 7.73 and the Z11-16Ald turned out to be 65.80.
For the compound `C[S+](C)[O-]` [DMSO], in data set [1], the “Z9-16:Ald” value is on record as 3.061, the “C16:Acid” value is given as 19.17, the “16:Ald” value was 6.722 and the Z11-16Ald worked out at 55.24. In data set [2], the “C16:Acid” value worked out at 16.74, the “Z9-16:Ald” value was 3.10, the “16:Ald” value is listed as 6.68 and the Z11-16Ald was 55.41.
With `CN(C)CCO` [Dimethylethanolamine], in data set [1], the “Z9-16:Ald” value is reported as 0, the “C16:Acid” value came to 11.55, the “16:Ald” value is reported as 1.242 and the Z11-16Ald is given as 8.128. For the same compound, in data set [2], the “C16:Acid” value is reported as 17.70, the “Z9-16:Ald” value turned out to be 3.09, the “16:Ald” value is recorded as 6.65 and the Z11-16Ald was 54.82.
As to `OCC(O)CO` [Glycerol], in data set [1], the “Z9-16:Ald” value came to 3.115, the “C16:Acid” value came out at 18.83, the “16:Ald” value is 6.736 and the Z11-16Ald is given as 54.86. For the same compound, in data set [2], the “C16:Acid” value was determined as 16.74, the “Z9-16:Ald” value is listed as 0.00, the “16:Ald” value stood at 6.75 and the Z11-16Ald was determined as 55.52.
For the compound `C1COCCN1` [Morpholine], in data set [1], the “Z9-16:Ald” value is given as 2.255, the “C16:Acid” value was 12.35, the “16:Ald” value is on record as 4.755 and the Z11-16Ald stood at 40.03. Besides, in data set [2], the “C16:Acid” value is given as 12.54, the “Z9-16:Ald” value is on record as 3.23, the “16:Ald” value was found to be 6.84 and the Z11-16Ald was found to be 57.13.
Turning to `CCCOC(=O)c1cc(O)c(O)c(O)c1` [Propyl Gallate], in data set [1], the “Z9-16:Ald” value was found to be 3.464, the “C16:Acid” value was 14.55, the “16:Ald” value is on record as 7.376 and the Z11-16Ald is 61.55. Also, in data set [2], the “C16:Acid” value came out at 11.32, the “Z9-16:Ald” value is reported as 3.83, the “16:Ald” value is recorded as 3.81 and the Z11-16Ald amounted to 67.75.
In the case of `[Na+].[OH-]` [Sodium Hydroxide], in data set [1], the “Z9-16:Ald” value is 2.927, the “C16:Acid” value is on record as 16.74, the “16:Ald” value amounted to 6.224 and the Z11-16Ald is given as 51.62. Moreover, in data set [2], the “C16:Acid” value was found to be 12.93, the “Z9-16:Ald” value turned out to be 3.18, the “16:Ald” value is given as 6.65 and the Z11-16Ald is recorded as 55.97.
With `O=S1(=O)CCCC1` [Sulfolane], in data set [1], the “Z9-16:Ald” value came out at 3.077, the “C16:Acid” value is 18.34, the “16:Ald” value was 6.666 and the Z11-16Ald came out at 54.91. In data set [2], the “C16:Acid” value stood at 16.92, the “Z9-16:Ald” value is 3.08, the “16:Ald” value is given as 6.60 and the Z11-16Ald turned out to be 54.29.
Consider `Cc1cc(-n2nc3ccc(Cl)cc3n2)c(O)c(C(C)(C)C)c1` [Sumisorb], for which, in data set [1], the “Z9-16:Ald” value was 3.325, the “C16:Acid” value is given as 17.1, the “16:Ald” value stood at 6.835 and the Z11-16Ald is given as 52.4909. Also, in data set [2], the “C16:Acid” value was 15.21, the “Z9-16:Ald” value turned out to be 3.20, the “16:Ald” value was determined as 6.81 and the Z11-16Ald was determined as 56.62.
With `CC(C)(C)c1cc(O)ccc1O` [TBHQ], in data set [1], the “Z9-16:Ald” value worked out at 3.367, the “C16:Acid” value was 16.52, the “16:Ald” value was determined as 6.913 and the Z11-16Ald was found to be 53.69. In data set [2], the “C16:Acid” value was determined as 10.34, the “Z9-16:Ald” value is listed as 3.67, the “16:Ald” value was determined as 7.75 and the Z11-16Ald is recorded as 65.65.
Regarding `CC1(C)CC(OC(=O)CCCCCCCCC(=O)OC2CC(C)(C)NC(C)(C)C2)CC(C)(C)N1` [Tinuvin 770], in data set [1], the “Z9-16:Ald” value was 3.135, the “C16:Acid” value came out at 18.22, the “16:Ald” value was 6.749 and the Z11-16Ald is 55.81. Also, in data set [2], the “C16:Acid” value amounted to 16.99, the “Z9-16:Ald” value came out at 3.12, the “16:Ald” value was 6.62 and the Z11-16Ald was found to be 54.84.
For the compound `Cc1ccc(O)c(-n2nc3ccccc3n2)c1` [Tinuvin P], in data set [1], the “Z9-16:Ald” value was determined as 3.085, the “C16:Acid” value stood at 19.1541, the “16:Ald” value came to 6.634 and the Z11-16Ald is on record as 54.35. In data set [2], the “C16:Acid” value was 17.66, the “Z9-16:Ald” value stood at 3.07, the “16:Ald” value came to 6.57 and the Z11-16Ald was 54.01.
